# “Also recorded” adds a separate entry of the source.
# Assays:
# [1] = estimated; cited from earlier work
# [2] = system: primary cortical neurons; assay: In vitro model of stroke: nuclear size (apoptotic nuclei) of cortical neurons 24 hours after ischemia; type: cell-based, mouse; conditions: for number of apoptotic neurons (nuclear size <30 μm2): vs non-treated neurons during ischemia
# Method: (§1) In order to mimic neuronal ischemia in vitro, primary cortical neurons were culture in vitro for 6 days. After this time either a total ischemia or a partial ischemia were performed.
# (§2) Total ischemia: on the day of ischemia medium was changed to PBS (pH=6.5) that had been previously bubbled with N2 to remove all O2. In the case of total ischemia, in order to ensure total lack of oxygen in the PBS, dithionite was added to the PBS to capture the remaining diluted O2. This process ensured the absence of both nutrients and O2 as it would be expected at the core of a stroke.
# (§3) Penumbra: to mimic penumbra, normal medium was changed to a mixture of medium without antioxidants and PBS (50:50) and bubbled with N2 to remove diluted O2.
# (§4) In both protocols neurons were then placed inside a gas chamber filled with N2 and left there for 45 minutes (ischemia) or 1 hour (penumbra). In order to mimic reperfusion, PBS or medium/PBS were then substituted with medium without antioxidants and left in the incubator overnight.
# (§5) Normoxia: to mimic normoxia, normal medium was changed with normal medium without antioxidants and placed in the incubator under normal conditions for 45 minutes or 1 hour. Then medium was exchanged again with normal medium and left overnight in the incubator.
# (§6) In all conditions neurons were fixed and stained with DRAQS (a nuclear marker) and NeuN (a neuronal marker) on the next day. Images were taking with an OPERA microscope and analysed with the help of FIJI Image analysis software. The more reliable outcome parameter to detect apoptosis was the surface of the nuclei in μm2 and the number of neurons alive after 24 hours. As it can be observed in FIGS. 1 and 2, the frequency distribution of nuclear sizes dramatically changed between normoxia and ischemia without treatment.
# [3] = system: mouse cortical neurons; assay: In vitro model of stroke: number of cortical neurons alive / survival rate 24 hours after ischemia; type: cell-based; conditions: for survival rate of mouse cortical neurons 24 hours after ischemic insult: 45 minutes ischemic insult, P<0.05; for number of cortical neurons alive / survival rate 24 hours after ischemia: penumbra like conditions, 60 minutes ischemic insult, P<0.001
# Method: as §1, §2, §3, §4, §5, §6
# [4] = system: mouse cortical neurons; assay: In vitro model of stroke: LDH released to the media (PIERCE LDH cytotoxicity assay); type: cell-based; conditions: for concentration of LDH in the media 24 hours after the ischemic insult: 45 minutes ischemic insult, vs ischemic non-treated neurons, p<0.05
# Method: as §1, §2, §3, §4, §5
# Additionally, the amount of LDH released to the media was determined. LDH is released to the media during necrosis (immediate cell death after an insult, 0-6 hours after insult) and in the late stages of apoptosis in vitro (6 to 24 hours after insult) through the disruption of the plasmatic membrane. For this we used the PIERCE LDH CYTOTOXICITY ASSAY from Life Technologies.
# [5] = system: Mice; assay: Transient filament MCA occlusion model (fMCAo) with infarct volumetry; type: in vivo, mouse
# Source text: Transient filament MCA occlusion model (fMCAo): Mice are anaesthetized with isoflurane delivered in a mixture of 30% O2 and 70% N2O. An incision is made between the ear and the eye in order to expose the temporal bone. A laser Doppler probe is affixed to the skull above the MCA territory, and mice are placed in the supine position. An incision is made in the midline neck region, and the common carotid artery and left external carotid artery are isolated and ligated; a 2-mm silicon-coated filament (Doccol, #701912PKRe) is inserted into the internal carotid artery, and MCA occlusion is confirmed by a corresponding decrease in blood flow (i.e., a decrease in the laser Doppler flow signal). After 60 minutes of occlusion the filament is removed and either the vehicle, or 5, 10, 20 or 40 mM of GA (concentration for the total expected infact area) is injected. […]
# Infarct volumetry: Brains are removed 24 and 72 hours after stroke induction and frozen on powdered dry ice. […] Infarct area is measured in each section using ImageJ software (NIH). In the fMCAo model, an edema correction for infarct volume is calculated using the following formula: (Ischemic area)=(Direct lesion volume)−[(Ipsilateral hemisphere)−(Contralateral hemisphere)] was performed. The total infarct volume is calculated by integrating the measured areas and intervals between the sections.
# [6] = system: mouse hearts; assay: Ischaemia-reperfusion in perfused hearts (Langendorff); conditions: 60 min global ischaemia, 60 min reperfusion with 5, 10, 20 or 40 mM glycolic acid
# Method: Ischaemia-reperfusion in perfused hearts: Ischemia reperfusion in perfused hearts is performed. After sodium pentobarbital overdose (150 mg/kg i. p.), mouse hearts are quickly excised and perfused through the aorta in a Langendorff apparatus with a modified Krebs-Henseleit bicarbonate buffer (in mmol/l: 140 NaCl, 24 NaHCO3, 2.7 KCl, 0.4 KH2PO4, 1 MgSO4, 1.8 CaCl2 and 11 glucose, 95% O2-5% CO2 at 37° C.) at constant flow perfusion pressure of 80 mmHg. Left ventricular (LV) pressure is monitored with a water-filled latex balloon inserted into the LV and inflated to obtain an end-diastolic pressure (LVEDP) of 6-8 mmHg. LV developed pressure (LVdevP) is calculated as the difference between LV systolic pressure and LVEDP. After 30 minutes (min) of normoxic perfusion, mouse hearts are subjected to 60 min of normothermic global ischaemia followed by 60 min of reperfusion with vehicle or 5, 10, 20 or 40 mM glycolic acid. Lactate dehydrogenase (LDH) activity is spectrophotometrically measured in samples collected from the coronary effluent at different times throughout the perfusion period and was considered an indirect measure of necrosis. After 60 min of reperfusion, heart slices were incubated in […] to outline the area of necrosis. Hearts submitted to normoxic perfusion during 120 min served as time control series. […]
# [7] = system: cardiomyocytes; assay: Ischaemia-reperfusion in isolated cardiomyocytes; type: cell-based, mouse; conditions: simulated ischaemia-reperfusion
# Method: Ischaemia-reperfusion in isolated cardiomyocytes: Freshly isolated cardiomyocytes are obtained from mouse hearts by retrograde collagenase perfusion. Rhod-shaped calcium tolerant cardiomyocytes are selected by differential centrifugation and albumin gradient and are plated on laminin-coated glass bottom coverslips (for confocal studies) or on 4% fetal calf serum pretreated multiwell dishes. To simulate IR in cardiomyocytes, two independent approaches are used: anoxic workstation under controlled atmosphere of 0% 02-5% H2 at 37° C. (Invivo2 Workstation Ruskinn, Bridgend, UK) and microscope-adapted microperfusion chamber (RC-43C/BS4 64-0371 Harvard Apparatus, Holliston, Mass., USA). For the anoxic workstation, cardiomyocytes are plated in 96-wells dishes, placed within the anoxic atmosphere and incubated for 15 min with glucose-free acidic ischaemic buffer (previously deoxygenated in an autoclave and bubbled with N2 for 20 min) containing (in mmol/l): 140 NaCl, 3.6 KCl, 1.2 MgSO4, 1 CaCl2, 20 HEPES, pH 6.4, and supplemented with 4 μmol/l resazurin, 100 μmol/l ascorbic acid, 0.5 mmol/l dithionite and 100 U/ml superoxide dismutase. For reperfusion, ischaemic buffer is washed out and oxygenated, glucose-containing control buffer (pH 7.4) is added for 10 min. […]
# [8] = system: Mice; assay: In vivo model of limb ischemia (unilateral femoral ligatures); parameters: species or system mouse; conditions: injected systemically when ligatures are removed or before ligation
# Method: In vivo model of limb ischemia: Mice are submitted to unilateral femoral ligatures for a few hours (4-5) to a few days. Glycolic acid or vehicle are injected systemically when the ligatures are removed. Alternatively, glycolic acid is given before ligation systemically. Ischemia is confirmed by clinical scores (tissue and functional damages by gait analysis) and methoxyisobutylisonitrile (MIBI) scintigraphies at different days 0, 4, 6, 10, 20, and 30. Histological analysis is also performed to determine the extension of the ischemia.
# [9] = system: Rabbits; assay: Model of intestinal ischemia (mesenteric ligation); type: in vivo, rabbit; conditions: injected intraarterially upon removal of the ligation or systemically before ligation
# Method: Rabbits are anesthetized with 3% barbital, 30-35 mg/intravenous injections. The small intestine is reflected to the left of the abdominal incision and then the SMA and SMV are identified. Mesenteric ischemia is confirmed when the mesenteric pulsation is lost and the intestine becomes pale. Ligation is maintained for 2, 4 and 6 hours. […] After removing the ligation, the animal is led free for 1 and 3 days and then is intracardially perfused. Intestinal samples are embedded in paraffin and sections are stained with a nuclear staining. Nuclear size distribution is analysed in different ischemic areas and compared to that of non-ischemic areas.
smiles,measurement,setting,value
OCCOCCO [diethylene glycol],minimum toxic dose,[1],0.14 mg glycolic acid per kg of body weight
"O=C(O)CO [glycolic acid, 2-hydroxyethanoic acid]",more normal size nuclei (nuclear surface >30 μm2) 24 hours after ischemia,"[2]; 5 mM pretreatment or 10 and 20 mM during reperfusion, vs control neurons that underwent ischemia without treatment",up to 65%
same,number of apoptotic neurons (nuclear size <30 μm2),"[2]; 10 mM during reperfusion, p<0.01",reduces the number of apoptotic neurons
same,shift of the nuclear size to smaller apoptotic nuclei induced by ischemia,[2]; 10 mM glycolic acid during reperfusion,partially reversed
same,number of apoptotic neurons (nuclear size <30 μm2),"[2]; 20 mM during reperfusion, p<0.01",reduces the number of apoptotic neurons
same,shift of the nuclear size to smaller apoptotic nuclei induced by ischemia,[2]; 20 mM glycolic acid during reperfusion,partially reversed
same,shift of the nuclear size to smaller apoptotic nuclei induced by ischemia,[2]; 4 days pretreatment with 5 mM glycolic acid,partially reversed
same,protective effect (rescue),[2]; penumbra conditions,100%
same,number of apoptotic neurons (nuclear size <30 μm2),"[2]; pre-treatment with 5 mM, p<0.05",reduces the number of apoptotic neurons
same,shift of the nuclear size to smaller apoptotic nuclei induced by ischemia,[2]; pretreatment with 2.5 mM glycolic acid,partially reversed
same,survival rate of mouse cortical neurons 24 hours after ischemic insult,[3]; 2.5 mM during reperfusion,increases the survival rate
same,survival rate of mouse cortical neurons 24 hours after ischemic insult,[3]; 5 mM during reperfusion,increases the survival rate
same,survival rate of mouse cortical neurons 24 hours after ischemic insult,"[3]; 5 mM during reperfusion, listed as GA",enough to rescue the effect of the ischemia
same,number of cortical neurons alive / survival rate 24 hours after ischemia,[3]; 10 mM during reperfusion,increased cortical neurons survival; also recorded: increases the survival rate
same,number of cortical neurons alive / survival rate 24 hours after ischemia,[3]; 20 mM during reperfusion,increases the survival rate
same,survival of mouse cortical neurons,[3]; concentrations lower than 5 mM given during reperfusion (data not shown),did not increase survival
same,"neuronal cell death / protection against ischemia, 24 hours after ischemia","[3]; mouse cortical neurons, vs non-treated neurons undergoing ischemia, applied before ischemia or during reperfusion",protects neurons from ischemia; also recorded: significantly decreases neuronal cell death; also recorded: protects against different degrees of ischemia both when applied before or after the acute ischemic insult
same,protection of neurons in normoxia conditions,[3]; pretreatment with 2.5 mM,protects neurons against the adverse conditions inherent to an in vitro setting
same,protection of neurons in normoxia conditions,[3]; pretreatment with 5 mM,protects neurons against the adverse conditions inherent to an in vitro setting
same,concentration of LDH in the media 24 hours after the ischemic insult,[4]; 2.5 mM during reperfusion,decrease the concentration of LDH significantly; also recorded: reduces apoptosis
same,concentration of LDH in the media 24 hours after the ischemic insult,[4]; 5 mM during reperfusion,decrease the concentration of LDH significantly; also recorded: reduces apoptosis
same,concentration of LDH in the media,[4]; concentrations lower than 5 mM given during reperfusion,decreased the concentration of LDH in the media
same,effect on LDH levels in normoxia,"[4]; normoxic conditions, 2.5 and 5 mM",did not observe any difference between treatments; also recorded: cannot be observed
same,decrease in blood flow,"[5]; 5, 10, 20 or 40 mM GA injected after 60 minutes of occlusion",less severe decrease in blood flow
same,infarct volume,[5]; brains removed 24 and 72 hours after stroke induction,reduce the infarct volume size
same,"necrosis (LDH activity, area of necrosis)",[6],reduced necrosis compared to controls
same,number of cardiomyocytes alive 24 hours after ischemia,[7],increased number of cardiomyocytes alive
same,extension of the ischemia and cell death,[8],reduce the extension of the ischemia and cell death
same,number of apoptotic nuclei and ischemic areas,[9],reduce the number of apoptotic nuclei and the ischemic areas
